Key:
in vivo = conditions: mouse
[1] = tested on: AKT, ERK and Pi3k in ZR71 breast cancer cells; experiment: Western blot analysis, ZR71; format: cell-based; conditions: 24 h
Method: (§1) Western blot analysis of 4910, 5310 and U87 glioma cells and MDAMB231 and ZR71 breast cancer cells in the presence of specified concentrations of compounds were assessed as per standard protocols. Cells were treated with AN019, AN024 or Temozolomide at the specified concentrations. 24 h after treatment, cells were collected and cell lysates extracted. Equal quantities of proteins were fractionated by SDS-PAGE. The fractionated proteins were blotted on to nylon membranes and immunoprobed for AKT, ERK and Pi3k. Breast cancer cell protein isolates were additionally immunoprobed for EGFR, ErbB1, ErbB2 and ErbB3.

ZR71 breast cancer cells = experiment: In vitro angiogenic assay, ZR-71 conditioned media on human dermal endothelial cells; format: cell-based; conditions: ZR-71 cells, radiation status not specified
Method: (§2) The in vitro angiogenesis of 4910, 5310 and U87 glioma cells and MDAMB231 and ZR71 breast cancer cells in the presence of specified concentrations of compounds were determined as follows, cells (2×10^4/well) were seeded in 8-well chamber slides and were treated with various concentrations of test compounds. After a 24 h incubation period, the conditioned media was removed and added to a 4×10^4 human dermal endothelial cell (monolayer in 8-well chamber slides) and the human dermal endothelial cells were allowed to grow for 72 h. Cells were then fixed in 3.7% formaldehyde and stained with H&E and photographed.

[2] = tested on: K562 luc human leukemia cells; experiment: Luciferase expression in nude mice implanted with K562 luc cells, low dose oral administration; format: in vivo
Source text: Five mice were used per group and divided into 24 groups+2 control. All groups were implanted with K562 normal/luc cells. Of the 24 groups, 12 were used for luciferase studies whereas the other 12 were used for blood smear count studies.

[3] = tested on: MDAMB231 breast cancer cells; experiment: In vitro angiogenic assay, MDA-MB-231 conditioned media on human dermal endothelial cells; format: cell-based; conditions: MDA-MB-231 cells, with radiation
Method: as §2

[4] = tested on: AKT, ERK and Pi3k in U87 glioma cells; experiment: Western blot analysis, U87; format: cell-based; conditions: 24 h
Method: as §1

U87 glioma cells = experiment: In vitro angiogenic assay, U87 conditioned media on human dermal endothelial cells; format: cell-based; conditions: with radiation
Method: as §2

K562 cells = experiment: Nude mice implanted with K562 cells: spleenic enlargement, Crk expression, leukemia growth index; format: in vivo
Source text: Mice were sacrificed after a decrease in percent leukemia growth index (LGI) was observed and spleen harvested.
Control mice also developed random subcutaneous tumors showing Crk expression, indicative of the presence of K562 cells.

5310 glioma cells = experiment: In vitro angiogenic assay, 5310 conditioned media on human dermal endothelial cells; format: cell-based; conditions: 5310 cells
Method: as §2

[5] = tested on: BCR-Abl, Crk and phospho Stat5AY^694/699 in K562 cells; experiment: Western blot analysis of K562 cells treated with AN024; format: cell-based, human
Method: Expression levels of BCR-Abl, Crk and phospho Stat5AY^694/699 were determined by western blot analysis in K562 cells treated with various concentrations of AN024 (1, 2.5, 5 or 10 μg/ml) for 12 h.
K562 cells were treated with 1, 2.5, 5, or 10 μg/ml of AN024. After 12 h, cells were collected and total cell lysates were prepared in extraction buffer containing Tris [0.1 M, pH 7.5], Triton-X114 (1.0%), EDTA (10 mM), aprotinin, and phenylmethylsulphonyl fluoride. […] The membranes were probed for 2 h with antibodies against BCR-Abl, Crk and phospho Stat5AY^694/699 per standard protocols. The membranes were subsequently washed three times with PBS to remove excess primary antibodies, incubated with appropriate HRP conjugated secondary antibodies as required, and then developed according to enhanced chemiluminesence protocol (Amersham, Arlington Heights, Ill.).
FIG. 1 illustrates results of this testing. K562 cells were treated with various concentrations of AN024 (1-10 μg/ml). Cell lysates were collected and western blot analysis was performed per standard protocols. Expression levels of BCR-Abl, Crk and Stat5AY^694/699 were determined.

[6] = tested on: K562 luciferase expressing cells; experiment: Leukemic survival study; format: in vivo, nude mice
Source text: K562 luciferase expressing cells were implanted intraperitoneally into nude mice; the mice were scanned using the xenogeny IVIS image station after ip injections of luciferin does determine implantations. Drug treatment was started as in previous studies day 15 after implantation. The animals were given treatment till day 42, after which drug treatment was stopped and survival of the animals determined as per the animal care regulations. […] Drug treatment was withdrawn on day 42 post implantation and survival of animals determined.

[7] = tested on: Baf3 murine leukemia cells T315I; experiment: Blast cell count in nude mice implanted with Baf3 T315I cells; format: in vivo; conditions: Baf3T315I; Imatinib 10 mg/kg, AN019 20 mg/kg, AN024 20 mg/kg, oral gavage or ip from day 15; day 42
Source text: Blood smears were obtained via the tail vein or via the femoral vein every 6th day and blast cells counted and graphically represented.
Abdominal swelling and decrease in activity was monitored daily, blood smear taken via the tail vein or the femoral vein every 6th day and H&E stained as per standard protocols. 42 days after implantation, mice were sacrificed and spleens harvested.
Blood from tail vein or the femoral vein was taken every 6th day from Baf3 cell implanted mice until day 42.
Nude mice were intraperitoneally implanted with Baf3 mutant cells (wt, T315I, M351T or E255K). […] Blood was drawn from the femoral vein or tail vein every 6th day and blast cell count determined and graphically represented.

4910 glioma cells = experiment: In vitro angiogenic assay, 4910 conditioned media on human dermal endothelial cells; format: cell-based; conditions: 4910 cells, with radiation
Method: as §2

[8] = tested on: 4910 human glioma xenograft cells; experiment: Glioma radiation studies, intracranial tumours; format: in vivo, nude mice
Method: Nude mice were intracranially implanted with 4910 human glioma xenograft cells (1×10^6 cells) intracranially. Ten days after implantation mice were treated with AN019, AN024 or temozolomide with or without radiation (5 Gy/week). The experiment was terminated at day 40 post implantation.

For Cc1ccc(NC(=O)c2cccc(S(=O)(=O)C(F)(F)F)c2)cc1Nc1nccc(-c2cccnc2)n1 [AN024, (3-trifluoromethylsulfonyl)-N-[4-methyl-3-(4-pyridin-3yl-pyrimidin-2ylamino)-phenyl]-benzamide], the MTD (in vivo) was 500 mg/kg, the LD50 (in vivo; po) was 1440 mg/kg and the AKT levels ([1]; ZR71, after radiation) was “decrease in AKT expression”. The PI3k levels ([1]; ZR71, with radiation) was “decrease in PI3k levels”, the AKT levels ([1]; ZR71, without radiation) was “did not show any significant change” and the inhibition of angiogenesis (ZR71 breast cancer cells) was “complete inhibition of angiogenesis”. For the same compound, the luciferase expression ([2]; 1 mg/kg) was “did not induce a decrease in luciferase expression”, the luciferase expression ([2]; 5 mg/kg) was “caused a decrease in luciferase expression” and the luciferase expression ([2]; 10 mg/kg) was “caused a decrease in luciferase expression”. For the same compound, the luciferase expression ([2]; 20 mg/kg) was “caused a decrease in luciferase expression”, the inhibition of angiogenesis [3] was “only a slight inhibition” and the ERK levels ([4]; U87, after radiation) was “decrease was enhanced after radiation”. For the same compound, the ERK levels ([4]; U87, without radiation) was “slight decrease in ERK levels”, the inhibition of angiogenesis (U87 glioma cells) was “increase in inhibition after radiation” and the “leukemia growth index (LGI)” value (K562 cells; K562 implanted nude mice) was “caused the regression of LGI”. The “Crk expression in paraffin sections of spleen” value (K562 cells; immuno-probed spleen sections) was “only basal level expression of Crk expression comparable to negative control”, the Spleenic enlargement (K562 cells; ip injections, visual inspection of harvested spleen) was “did not show any spleenic enlargement” and the “physiological, phenotypic or behavioral abnormality” value (K562 cells; treated K562 implanted nude mice) was “no abnormal physiological, phenotypic or behavioral abnormality”. The inhibition of angiogenesis (5310 glioma cells; after radiation treatment) was “angiogenesis further inhibited”, the inhibition of angiogenesis (5310 glioma cells; control conditions (without radiation)) was “inhibition of angiogenesis was seen” and the “BCR-Abl, Crk and phospho Stat5AY^694/699 protein levels” value ([5]; K562 cells, 1, 2.5, 5 or 10 μg/ml, 12 h, western blot) was “decreased in a dose dependent manner”. For the same compound, the BCR-Abl kinase activity ([5]; K562 cells, 1-10 μg/ml) was “inhibited BCR-Abl kinase activity in a dose dependent manner”, the “blast cell count from blood smears after withdrawal of drug treatment” value ([6]; drug treatment withdrawn on day 42 (FIG. 6C)) was “showed effectiveness after withdrawal of drug treatment” and the “animals showing no signs of leukemia / complete absence of leukemic symptoms” value ([6]; of 10 animals, treatment day 15 to day 42, then withdrawn, AN024 read on day 55) was 8 animals. The “mortality (day post implantation)” value ([6]; treatment day 15 to day 42, then withdrawn) was 38 days, the “blast cell count in blood smears” value [7] was “significant decrease in blast cell count” and the inhibition of angiogenesis (4910 glioma cells) was “significant inhibition of angiogenesis”. For the same compound, the “intracranial tumours (size, appearance)” value ([8]; with radiation (5 Gy/week)) was “well defined surgically respectable tumours” and the “intracranial tumours (size, appearance)” value ([8]; without radiation) was “well defined and not showing diffuse edges”.
